Reference: ChEMBL document CHEMBL1909046, “DrugMatrix in vitro pharmacology data”

Columns and labels:
[1] = DRUGMATRIX: Calcium Channel Type L, Dihydropyridine radioligand binding (ligand: [3H] Nitrendipine); assay type: cell membranes, Rattus norvegicus, Wistar, Cerebral cortex, Membrane; details: Not Active = under 50% inhibition at 10 µM
[2] = target: C-C chemokine receptor type 5 (Homo sapiens, UniProt P51681); assay type: cell membranes, HEK293, Membrane; details: hek293; note: in other assays of this panel Not Active means under 50% inhibition at 10 µM
D(1A) dopamine receptor = D(1A) dopamine receptor (Homo sapiens, UniProt P21728); assay: DRUGMATRIX: Dopamine D1 radioligand binding (ligand: [3H] SCH-23390); assay type: cell membranes, CHO, Membrane; details: cho; Not Active = under 50% inhibition at 10 µM
[3] = target: T1, Polyunsaturated fatty acid lipoxygenase ALOX15 (Oryctolagus cuniculus, UniProt P12530); assay: biochemical; assay type: tissue-based, Reticulocytes;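 note: inhibition of 15-lipoxygenase enzyme activity measured with linoleic acid as the substrate; in other assays of this panel Not Active means under 50% inhibition at 10 µM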
T1 sequence (P12530 whole entry): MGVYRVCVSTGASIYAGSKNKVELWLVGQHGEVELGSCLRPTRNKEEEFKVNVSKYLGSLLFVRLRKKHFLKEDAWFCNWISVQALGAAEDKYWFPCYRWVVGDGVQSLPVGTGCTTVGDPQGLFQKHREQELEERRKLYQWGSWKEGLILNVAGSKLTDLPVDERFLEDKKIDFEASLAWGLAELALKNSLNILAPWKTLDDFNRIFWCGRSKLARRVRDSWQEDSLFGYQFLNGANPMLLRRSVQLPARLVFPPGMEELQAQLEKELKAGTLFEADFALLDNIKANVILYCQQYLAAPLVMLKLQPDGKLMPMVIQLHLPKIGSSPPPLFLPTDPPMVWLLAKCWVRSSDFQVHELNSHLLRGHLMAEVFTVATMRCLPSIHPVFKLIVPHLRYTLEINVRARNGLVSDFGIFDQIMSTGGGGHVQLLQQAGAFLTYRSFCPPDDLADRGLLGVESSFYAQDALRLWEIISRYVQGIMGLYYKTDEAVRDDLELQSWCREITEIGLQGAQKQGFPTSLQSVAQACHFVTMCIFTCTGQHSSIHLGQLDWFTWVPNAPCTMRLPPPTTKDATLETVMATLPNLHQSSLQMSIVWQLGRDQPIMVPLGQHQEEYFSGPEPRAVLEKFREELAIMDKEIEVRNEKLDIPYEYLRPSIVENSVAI

Melanocortin receptor 5 = Melanocortin receptor 5 (Homo sapiens, UniProt P33032); assay type: cell membranes, HEK293, Membrane; details: hek293; note: in other assays of this panel Not Active means under 50% inhibition at 10 µM
[4] = target: T2, Nitric oxide synthase, inducible (Mus musculus, UniProt P29477); parameters: species or system Escherichia coli;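 note: inhibition of iNOS enzyme activity measured with L-arginine as substrate; in other assays of this panel Not Active means under 50% inhibition at 10 µM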
T2 sequence (P29477 whole entry): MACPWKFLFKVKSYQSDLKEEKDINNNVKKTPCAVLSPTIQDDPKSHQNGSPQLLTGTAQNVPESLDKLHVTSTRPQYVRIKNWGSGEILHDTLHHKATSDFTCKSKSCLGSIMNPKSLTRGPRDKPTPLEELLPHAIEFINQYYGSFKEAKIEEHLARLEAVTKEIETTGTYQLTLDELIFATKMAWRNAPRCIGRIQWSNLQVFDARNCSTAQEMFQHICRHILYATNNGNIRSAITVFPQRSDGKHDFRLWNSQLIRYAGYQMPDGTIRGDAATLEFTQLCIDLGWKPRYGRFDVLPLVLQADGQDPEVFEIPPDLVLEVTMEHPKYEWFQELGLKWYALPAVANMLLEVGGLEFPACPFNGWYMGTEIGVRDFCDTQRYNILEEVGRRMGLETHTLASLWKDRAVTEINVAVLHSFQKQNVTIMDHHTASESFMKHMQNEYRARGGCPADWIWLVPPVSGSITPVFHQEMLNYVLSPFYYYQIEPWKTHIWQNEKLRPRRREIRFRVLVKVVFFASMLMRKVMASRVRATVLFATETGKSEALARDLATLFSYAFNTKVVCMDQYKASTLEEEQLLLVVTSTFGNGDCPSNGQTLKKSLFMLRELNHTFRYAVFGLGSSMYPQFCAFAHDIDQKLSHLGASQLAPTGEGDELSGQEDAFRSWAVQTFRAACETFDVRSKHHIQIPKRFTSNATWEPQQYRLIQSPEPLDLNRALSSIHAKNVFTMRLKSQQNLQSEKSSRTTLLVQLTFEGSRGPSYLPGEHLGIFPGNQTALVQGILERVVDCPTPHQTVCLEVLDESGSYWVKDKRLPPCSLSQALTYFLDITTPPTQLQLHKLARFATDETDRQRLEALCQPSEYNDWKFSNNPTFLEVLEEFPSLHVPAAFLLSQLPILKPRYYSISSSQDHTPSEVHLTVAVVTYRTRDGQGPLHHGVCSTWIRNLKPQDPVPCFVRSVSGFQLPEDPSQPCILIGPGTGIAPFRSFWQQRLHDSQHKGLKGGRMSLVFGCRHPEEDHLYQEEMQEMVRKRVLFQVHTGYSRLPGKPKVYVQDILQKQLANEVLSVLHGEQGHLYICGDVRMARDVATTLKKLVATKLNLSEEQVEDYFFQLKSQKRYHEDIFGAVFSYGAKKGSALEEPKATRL

Mu-type opioid receptor = Mu-type opioid receptor (Homo sapiens, UniProt P35372); assay: DRUGMATRIX: Opiate mu (OP3, MOP) radioligand binding (ligand: [3H] Diprenorphine); assay type: cell membranes, CHO-K1, Membrane; details: cho-k1; Not Active = under 50% inhibition at 10 µM
Sequence of Mu-type opioid receptor (P35372 whole entry): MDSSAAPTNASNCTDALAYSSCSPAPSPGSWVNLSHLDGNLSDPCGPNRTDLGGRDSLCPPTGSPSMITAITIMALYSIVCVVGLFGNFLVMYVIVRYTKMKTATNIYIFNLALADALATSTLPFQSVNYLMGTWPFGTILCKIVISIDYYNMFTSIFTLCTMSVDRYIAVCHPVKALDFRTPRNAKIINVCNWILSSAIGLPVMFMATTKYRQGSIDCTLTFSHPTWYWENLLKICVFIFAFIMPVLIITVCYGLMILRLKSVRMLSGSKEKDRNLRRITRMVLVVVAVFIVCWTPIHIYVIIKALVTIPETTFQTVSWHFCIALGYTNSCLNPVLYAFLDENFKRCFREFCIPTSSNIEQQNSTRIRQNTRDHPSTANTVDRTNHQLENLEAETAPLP

Sequence of D(1A) dopamine receptor (P21728 whole entry): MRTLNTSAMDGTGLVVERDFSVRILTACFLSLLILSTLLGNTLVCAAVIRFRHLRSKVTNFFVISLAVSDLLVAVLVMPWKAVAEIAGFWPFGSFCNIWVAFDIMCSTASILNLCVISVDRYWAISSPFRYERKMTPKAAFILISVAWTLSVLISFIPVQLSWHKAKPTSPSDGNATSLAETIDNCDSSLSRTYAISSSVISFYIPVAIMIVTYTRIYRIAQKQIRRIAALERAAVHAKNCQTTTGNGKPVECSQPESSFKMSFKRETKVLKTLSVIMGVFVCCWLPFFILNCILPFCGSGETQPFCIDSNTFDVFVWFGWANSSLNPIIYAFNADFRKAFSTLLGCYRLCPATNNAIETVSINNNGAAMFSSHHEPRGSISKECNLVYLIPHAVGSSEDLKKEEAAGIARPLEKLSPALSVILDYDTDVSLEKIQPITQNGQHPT
Sequence of Melanocortin receptor 5 (P33032 whole entry): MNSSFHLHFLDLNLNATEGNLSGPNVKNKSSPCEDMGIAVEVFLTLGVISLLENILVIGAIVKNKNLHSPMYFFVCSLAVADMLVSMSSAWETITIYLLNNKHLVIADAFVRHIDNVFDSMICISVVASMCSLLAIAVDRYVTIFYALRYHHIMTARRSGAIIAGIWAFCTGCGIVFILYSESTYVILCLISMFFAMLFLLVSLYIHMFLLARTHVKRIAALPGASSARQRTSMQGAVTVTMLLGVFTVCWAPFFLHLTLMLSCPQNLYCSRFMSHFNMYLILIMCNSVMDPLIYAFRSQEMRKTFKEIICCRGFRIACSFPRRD
Sequence of C-C chemokine receptor type 5 (P51681 whole entry): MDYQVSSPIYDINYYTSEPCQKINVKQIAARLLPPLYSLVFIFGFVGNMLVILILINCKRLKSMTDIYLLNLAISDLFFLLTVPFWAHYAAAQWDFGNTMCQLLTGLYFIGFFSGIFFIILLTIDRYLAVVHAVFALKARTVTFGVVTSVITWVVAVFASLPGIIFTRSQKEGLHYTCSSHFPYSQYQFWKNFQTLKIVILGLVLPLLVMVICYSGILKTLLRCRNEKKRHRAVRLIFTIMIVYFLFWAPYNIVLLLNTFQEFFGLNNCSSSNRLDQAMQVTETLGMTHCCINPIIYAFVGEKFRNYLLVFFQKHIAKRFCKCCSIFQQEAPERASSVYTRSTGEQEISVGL

NC(=O)NC(=O)Cc1ccccc1 [PHENACEMIDE]
Not Active: IC50 [1] | Ki [1] | IC50 [2] | IC50 (D(1A) dopamine receptor) | IC50 ([3]; reticulocytes) | IC50 (Melanocortin receptor 5) | IC50 [4] | IC50 (Mu-type opioid receptor)

Nc1ccc(C(=O)O)c(O)c1 [AMINOSALICYLIC ACID]
Not Active: IC50 [1] | Ki [1] | IC50 [2] | IC50 (D(1A) dopamine receptor) | IC50 ([3]; reticulocytes) | IC50 (Melanocortin receptor 5) | IC50 [4] | IC50 (Mu-type opioid receptor)

Nc1nc(N)c2nc(CNc3ccc(C(=O)N[C@@H](CCC(=O)O)C(=O)O)cc3)cnc2n1 [AMINOPTERIN]
Not Active: IC50 [1] | Ki [1] | IC50 [2] | IC50 (D(1A) dopamine receptor) | IC50 ([3]; reticulocytes) | IC50 (Melanocortin receptor 5) | IC50 [4] | IC50 (Mu-type opioid receptor)

c1ccc(Cn2ccnc2)cc1
Not Active: IC50 [1] | Ki [1] | IC50 [2] | IC50 (D(1A) dopamine receptor) | IC50 ([3]; reticulocytes) | IC50 (Melanocortin receptor 5) | IC50 [4] | IC50 (Mu-type opioid receptor)

CC(C)(C#N)c1cc(Cn2cncn2)cc(C(C)(C)C#N)c1 [ANASTROZOLE]
Not Active: IC50 [1] | Ki [1] | IC50 [2] | IC50 (D(1A) dopamine receptor) | IC50 ([3]; reticulocytes) | IC50 (Melanocortin receptor 5) | IC50 [4] | IC50 (Mu-type opioid receptor)

COc1cc(/C=C/C(=O)O)ccc1O [FERULATE]
Not Active: IC50 [1] | Ki [1] | IC50 [2] | IC50 (D(1A) dopamine receptor) | IC50 (Melanocortin receptor 5) | IC50 [4] | IC50 (Mu-type opioid receptor)
3.98 µM: IC50 ([3]; read-out: IC50)

C[N+](C)(C)CCOC(N)=O.[Cl-] [CARBACHOL]
Not Active: IC50 [1] | Ki [1] | IC50 [2] | IC50 (D(1A) dopamine receptor) | IC50 ([3]; reticulocytes) | IC50 (Melanocortin receptor 5) | IC50 [4] | IC50 (Mu-type opioid receptor)

Oc1ncnc2[nH]ncc12 [ALLOPURINOL]
Not Active: IC50 [1] | Ki [1] | IC50 [2] | IC50 (D(1A) dopamine receptor) | IC50 ([3]; reticulocytes) | IC50 (Melanocortin receptor 5) | IC50 [4] | IC50 (Mu-type opioid receptor)

Cc1cc(C(C)(C)C)c(O)c(C)c1CC1=NCCN1 [OXYMETAZOLINE]
Not Active: IC50 [1] | Ki [1] | IC50 [2] | IC50 (D(1A) dopamine receptor) | IC50 ([3]; reticulocytes) | IC50 (Melanocortin receptor 5) | IC50 [4] | IC50 (Mu-type opioid receptor)

CC(C)Cn1cnc2c(N)nc3ccccc3c21 [IMIQUIMOD]
Not Active: IC50 [1] | Ki [1] | IC50 [2] | IC50 (D(1A) dopamine receptor) | IC50 ([3]; reticulocytes) | IC50 (Melanocortin receptor 5) | IC50 [4] | IC50 (Mu-type opioid receptor)

NS(=O)(=O)c1cc(C(=O)O)c(NCc2ccco2)cc1Cl [FUROSEMIDE]
Not Active: IC50 [1] | Ki [1] | IC50 [2] | IC50 (D(1A) dopamine receptor) | IC50 ([3]; reticulocytes) | IC50 (Melanocortin receptor 5) | IC50 [4] | IC50 (Mu-type opioid receptor)
